Experimental data reported in US20250197387A1, “BCL-XL DEGRADERS AND USES THEREOF” (Kymera Therapeutics, Inc., priority 2021, published 2025).
Read-outs that look alike come from different tables or passages of the source.

Experiments:
Type in all cases: cell-based
BCL-XL [1] = target: T1, BCL-XL (Homo sapiens, UniProt Q07817); assay: BCL-XL degradation assay, western blot in MOLT-4 cells, 16 h; details: for DC50: read-out: Bcl-xL WB in MOLT-4 degradation 16 h: Mean external-Abs DC50
T1 construct: endogenous in cells; host or cells: MOLT-4
Procedure, shortened: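 Infrared-imaged western blots quantified BCL-xL (normalised against beta-actin/GAPDH) after 16 hr, 37° C exposure of MOLT-4 cells to 0.02-10 μM compound; results given as DC50 and Dmax % bins.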

BCL-XL [2] = target: T1, BCL-XL; assay: Bcl-xL ELISA degradation in MOLT-4 cells, 6 h; details: for DC50: read-out: Bcl-xL ELISA in MOLT-4 degradation 6 h: Mean external-Abs DC50
Description: The letter codes for BCL-XL DC50 include: A (<0.01 μM); B (0.01-0.1 μM); C (>[…]); D (>0.5-1.0 μM); and E (>1.0 μM). The letter codes for Dmax % include A (>75%); B (50 to 75%); C (<50%).

MOLT-4 cells = assay: CTG (CellTiter-Glo) cell viability assay, MOLT-4; details: 3 day incubation, read-out: CTG Cell Viability Assay - MOLT-4 3 day: Average external-IC50
Procedure, shortened: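 10,000 cells/well; 9 doses, 1:3 from 10 μM top; 0.2% DMSO; 3 d, 37 °C, 5% CO2; CTG luminescence; IC50 via 3-parameter logistic fit. Letter bins differ: Caki-2 C/D cut at 10.0 μM, MOLT-4 at 3.0 μM.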

[3] = western blot, MOLT-4 cells, 16 h, read-out: Bcl-xL WB in MOLT-4 degradation 16 h: Average Dmax %
[4] = western blot, MOLT-4 cells, 16 h

T1 sequence (Q07817 whole entry): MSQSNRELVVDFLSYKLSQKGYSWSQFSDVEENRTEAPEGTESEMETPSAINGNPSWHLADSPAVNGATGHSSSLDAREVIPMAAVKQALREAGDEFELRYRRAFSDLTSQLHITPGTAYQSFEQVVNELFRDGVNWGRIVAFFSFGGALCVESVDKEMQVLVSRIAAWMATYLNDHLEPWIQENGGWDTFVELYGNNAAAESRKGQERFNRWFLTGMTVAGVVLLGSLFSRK

Dmax (BCL-XL [1]; [3]) [%] | DC50 (BCL-XL [1]; [4]) [µM] | Dmax (BCL-XL [2]) [%] | DC50 (BCL-XL [2]) [µM] | IC50 (MOLT-4 cells; Homo sapiens, MOLT-4, 72 h) [µM] | Bcl-xL WB in MOLT-4 degradation 16 h: Average Dmax % (BCL-XL [1]; [4]) | Bcl-xL ELISA in MOLT-4 degradation 6 h: Average Dmax % (BCL-XL [2]) | IC50 (MOLT-4 cells) [µM] | SMILES | Dmax (BCL-XL [1]; MOLT-4, read-out: Bcl-xL WB in MOLT-4 degradation 16 h: Average Dmax %) [%] | IC50 (MOLT-4 cells; Homo sapiens, 72 h) [µM]
> 75 | < 0.01 | > 75 | 0.01 to 0.1 | < 0.1 |  |  |  | C#Cc1ccc([C@H](CO)NC(=O)[C@@H]2C[C@@H](O)CN2C(=O)[C@@H](NC(=O)CCc2ccc(S(=O)(=O)NC(=O)c3nc(N4CCc5cccc(C(=O)Nc6nc7ccccc7s6)c5C4)ccc3-c3cnn(CC4CCCCC4)c3C)cc2)C(C)(C)C)cc1 [I-194] |  | 
> 75 | 0.01 to 0.1 | 50 to 75 | 0.01 to 0.1 | 0.1 to 1 |  |  |  | C#Cc1ccc([C@H](CO)NC(=O)[C@@H]2C[C@@H](O)CN2C(=O)[C@@H](NC(=O)CCc2ccc(S(=O)(=O)NC(=O)c3nc(N(C)c4cc(C)c(Nc5nc6ccccc6s5)nn4)ccc3-c3cnn(CC4CCCCC4)c3C)cc2)C(C)(C)C)cc1 [I-186] |  | 
> 75 | 0.01 to 0.1 | < 50 | > 1 | 0.1 to 1 |  |  |  | Cc1cc([C@H](C(=O)N2C[C@H](O)C[C@H]2C(=O)NCc2ccc(-c3scnc3C)cc2OCCCCCCNC(=O)c2nc(N3CCc4cccc(C(=O)Nc5nc6ccccc6s5)c4C3)ccc2-c2cnn(CC3CCCCC3)c2C)C(C)C)on1 [I-197] |  | 
> 75 | < 0.01 | > 75 | 0.01 to 0.1 | 0.1 to 1 |  |  |  | Cc1ncsc1-c1ccc([C@H](C)NC(=O)[C@@H]2C[C@@H](O)CN2C(=O)[C@@H](NC(=O)CCCCCCCCC(=O)N2CCN(CC#Cc3ccc(OCCCc4sc(N5CCc6cccc(C(=O)Nc7nc8ccccc8s7)c6C5)nc4C(=O)O)c(F)c3)CC2)C(C)(C)C)cc1 [I-204] |  | 
> 75 | < 0.01 | 50 to 75 | 0.1 to 0.5 | 0.1 to 1 |  |  |  | Cc1ncsc1-c1ccc([C@H](C)NC(=O)[C@@H]2C[C@@H](O)CN2C(=O)[C@@H](NC(=O)N2CC(N3CCC(S(=O)(=O)NC(=O)c4nc(N5CCc6cccc(C(=O)Nc7nc8ccccc8s7)c6C5)ccc4-c4cnn(CC5CCCCC5)c4C)CC3)C2)C(C)(C)C)cc1 [I-212] |  | 
 | < 0.01 |  | 0.1 to 0.5 |  | A (A (>75%)) | C (C (<50%)) | 0.1 to 1 | Cc1ncsc1-c1ccc([C@H](C)NC(=O)[C@@H]2C[C@@H](O)CN2C(=O)[C@@H](NC(=O)CCCCCCC(=O)N2CCN(CC3(C)CCC(c4ccc(Cl)cc4)=C(CN4CCN(c5ccc(C(=O)NS(=O)(=O)c6ccc(N[C@H](CCN7CCOCC7)CSc7ccccc7)c(S(=O)(=O)C(F)(F)F)c6)cc5)CC4)C3)CC2)C(C)(C)C)cc1 (some centres unmarked) [I-399] |  | 
> 75 | < 0.01 | 50 to 75 | 0.01 to 0.1 | 0.1 to 1 |  |  |  | Cc1ncsc1-c1ccc(CNC(=O)[C@@H]2C[C@@H](O)CN2C(=O)[C@H](c2cc(OCCCCCCCCC(=O)N(C)CC#Cc3ccc(OCCCc4ccc(N5CCc6cccc(C(=O)Nc7nc8ccccc8s7)c6C5)nc4C(=O)O)c(F)c3)no2)C(C)C)cc1 [I-172] |  | 
50 to 75 | 0.1 to 0.5 |  |  | 1 to 3 |  |  |  | Cc1ncsc1-c1ccc(CNC(=O)[C@@H]2C[C@@H](O)CN2C(=O)[C@@H](c2cc(OCCCCCCCCC(=O)N(C)CC#Cc3ccc(OCCCc4ccc(N5CCc6cccc(C(=O)Nc7nc8ccccc8s7)c6C5)nc4C(=O)O)c(F)c3)no2)C(C)C)cc1 [I-171] |  | 
50 to 75 | 0.5 to 1 |  |  | 0.1 to 1 |  |  |  | Cc1ncsc1-c1ccc(CNC(=O)[C@@H]2C[C@@H](O)CN2C(=O)[C@@H](NC(=O)C2(F)CC2)C(C)(C)C)c(OCCCCNC(=O)c2nc(N3CCc4cccc(C(=O)Nc5nc6ccccc6s5)c4C3)ccc2-c2cnn(CC3CCCCC3)c2C)c1 [I-190] |  | 
< 50 | > 1 |  |  | 0.1 to 1 |  |  |  | Cc1cc(N(C)c2ccc(-c3cnn(CC4CCCCC4)c3C)c(C(=O)NCCCCCCOc3cc(-c4scnc4C)ccc3CNC(=O)[C@@H]3C[C@@H](O)CN3C(=O)[C@@H](NC(=O)C3(F)CC3)C(C)(C)C)n2)nnc1Nc1nc2ccccc2s1 [I-203] |  | 
50 to 75 | > 1 |  |  | 0.1 to 1 |  |  |  | Cc1ncsc1-c1ccc(CNC(=O)[C@@H]2C[C@@H](O)CN2C(=O)[C@@H](NC(=O)C2(F)CC2)C(C)(C)C)c(OCC(=O)N2CCN(CCCC3(Cn4ncc(-c5ccc(N6CCc7cccc(C(=O)Nc8nc9ccccc9s8)c7C6)nc5C(=O)O)c4C)CCCCC3)CC2)c1 [I-173] |  | 
> 75 | < 0.01 |  |  | < 0.1 |  |  |  | Cc1ncsc1-c1ccc(CNC(=O)[C@@H]2CC(O)CN2C(=O)[C@@H](NC(=O)C2(F)CC2)C(C)(C)C)c(OCCCCCCCCS(=O)(=O)NC(=O)c2nc(N3CCc4cccc(C(=O)Nc5nc6ccccc6s5)c4C3)ccc2-c2cnn(CC34CC5CC(CC(C5)C3)C4)c2C)c1 (some centres unmarked) [I-122] |  | 
< 50 | > 1 |  |  | > 3 |  |  |  | Cc1ncsc1-c1ccc([C@H](C)NC(=O)[C@@H]2C[C@@H](O)CN2C(=O)[C@@H](NC(=O)CCCCCCC(=O)N2CCN(CC3(C)CCC(c4ccc(Cl)cc4)=C(CN4CCN(c5ccc(C(=O)NS(=O)(=O)c6ccc(NCC78CC9CC(CC(O)(C9)C7)C8)c(S(=O)(=O)C(F)(F)F)c6)cc5)CC4)C3)CC2)C(C)(C)C)cc1 (some centres unmarked) [I-398] |  | 
> 75 | 0.01 to 0.1 |  |  | 1 to 3 |  |  |  | Cc1ncsc1-c1ccc([C@H](C)NC(=O)[C@@H]2C[C@@H](O)CN2C(=O)[C@@H](NC(=O)CCCCCC(=O)N2CCN(CC[C@H](CSc3ccccc3)Nc3ccc(S(=O)(=O)NC(=O)c4csc(N5CCc6cccc(C(=O)Nc7nc8ccccc8s7)c6C5)n4)cc3S(=O)(=O)C(F)(F)F)CC2)C(C)(C)C)cc1 [I-108] |  | 
> 75 | 0.01 to 0.1 |  |  | 1 to 3 |  |  |  | Cc1ncsc1-c1ccc([C@H](C)NC(=O)[C@@H]2C[C@@H](O)CN2C(=O)[C@@H](NC(=O)CCCCCCCC(=O)NCCOc2ccc(C(=O)Nc3nc4ccccc4s3)c3c2CCN(c2ccc(-c4cnn(CC5CCCCC5)c4C)c(C(=O)O)n2)C3)C(C)(C)C)cc1 [I-45] |  | 
> 75 | 0.1 to 0.5 |  |  | 1 to 3 |  |  |  | Cc1ncsc1-c1ccc([C@@H](CC(=O)N(C)CCCC(=O)N2CCN(CC[C@H](CSc3ccccc3)Nc3ccc(S(=O)(=O)NC(=O)c4ccc(N5CCN(CC6=C(c7ccc(Cl)cc7)CCC(C)(C)C6)CC5)cc4)cc3S(=O)(=O)C(F)(F)F)CC2)NC(=O)[C@@H]2C[C@@H](O)CN2C(=O)[C@@H](NC(=O)C2(F)CC2)C(C)(C)C)cc1 [I-139] |  | 
50 to 75 | 0.5 to 1 |  |  | 0.1 to 1 |  |  |  | Cc1ncsc1-c1ccc([C@H](C)NC(=O)[C@@H]2C[C@@H](O)CN2C(=O)[C@@H](NC(=O)N2CCC(CN3CCC(CNC(=O)c4nc(N5CCc6cccc(C(=O)Nc7nc8ccccc8s7)c6C5)ccc4-c4cnn(CC5CCCCC5)c4C)CC3)CC2)C(C)(C)C)cc1 [I-144] |  | 
< 50 | > 1 |  |  | > 3 |  |  |  | Cc1ncsc1-c1ccc([C@H](C)NC(=O)[C@@H]2C[C@@H](O)CN2C(=O)[C@@H](NC(=O)CCCCCC(=O)N2CCN(CC[C@H](CSc3ccccc3)Nc3ccc(S(=O)(=O)NC(=O)c4ccc(N5CCC(C)(C)CC5)cc4)cc3S(=O)(=O)C(F)(F)F)CC2)C(C)(C)C)cc1 [I-392] |  | 
< 50 | 0.1 to 0.5 |  |  | 1 to 3 |  |  |  | Cc1ncsc1-c1ccc([C@H](C)NC(=O)[C@@H]2C[C@@H](O)CN2C(=O)[C@@H](NC(=O)N2CC3(CN(CCCS(=O)(=O)NC(=O)c4nc(N5CCc6cccc(C(=O)Nc7nc8ccccc8s7)c6C5)ccc4-c4cnn(CC5CCCCC5)c4C)C3)C2)C(C)(C)C)cc1 [I-151] |  | 
< 50 | > 1 |  |  | > 3 |  |  |  | Cc1ncsc1-c1ccc(CNC(=O)[C@@H]2C[C@@H](O)CN2C(=O)[C@@H](c2cc(N3CC4(CN(CCCC(=O)N(C)CC#Cc5ccc(OCCCc6ccc(N7CCc8cccc(C(=O)Nc9nc%10ccccc%10s9)c8C7)nc6C(=O)O)c(F)c5)C4)C3)no2)C(C)C)cc1 [I-180] |  | 
> 75 | 0.1 to 0.5 |  |  | > 3 |  |  |  | Cc1ncsc1-c1ccc([C@H](C)NC(=O)[C@@H]2C[C@@H](O)CN2C(=O)[C@H](NC(=O)CCCCCCCS(=O)(=O)NC(=O)c2nc(N3CCc4cccc(C(=O)Nc5nc6ccccc6s5)c4C3)ccc2-c2cnn(C)c2C)C(C)(C)C)cc1 [I-145] |  | 
50 to 75 | > 1 |  |  | > 3 |  |  |  | Cc1cc(N(C)c2ccc(-c3cnn(CC4CCCCC4)c3C)c(C(=O)NS(=O)(=O)CCCCCOc3cc(-c4scnc4C)ccc3CNC(=O)[C@@H]3C[C@@H](O)CN3C(=O)[C@@H](NC(=O)C3(F)CC3)C(C)(C)C)n2)nnc1Nc1nc2ccccc2s1 [I-188] |  | 

SMILES | Dmax (BCL-XL [1]; [3]) [%] | DC50 (BCL-XL [1]; [4]) [µM] | Dmax (BCL-XL [2]) [%] | DC50 (BCL-XL [2]) [µM] | IC50 (MOLT-4 cells; Homo sapiens, MOLT-4, 72 h) [µM] | Bcl-xL WB in MOLT-4 degradation 16 h: Average Dmax % (BCL-XL [1]; [4]) | Bcl-xL ELISA in MOLT-4 degradation 6 h: Average Dmax % (BCL-XL [2]) | IC50 (MOLT-4 cells) [µM] | Dmax (BCL-XL [1]; MOLT-4, read-out: Bcl-xL WB in MOLT-4 degradation 16 h: Average Dmax %) [%] | IC50 (MOLT-4 cells; Homo sapiens, 72 h) [µM]
Cc1ncsc1-c1ccc([C@@H](CC(=O)N(C)CC(=O)N2CCN(CC[C@H](CSc3ccccc3)Nc3ccc(S(=O)(=O)NC(=O)c4ccc(N5CCN(CC6=C(c7ccc(Cl)cc7)CCC(C)(C)C6)CC5)cc4)cc3S(=O)(=O)C(F)(F)F)CC2)NC(=O)[C@@H]2C[C@@H](O)CN2C(=O)[C@@H](NC(=O)C2(F)CC2)C(C)(C)C)cc1 [I-137] |  | 0.1 to 0.5 |  |  |  |  |  |  | > 75 | 1 to 3
